The values below come from patent US7645757B2, “Derivatives of heteroaryl-alkylcarbamates, methods for their preparation and use thereof as fatty acid amido hydrolase enzyme inhibitors” (sanofi-aventis, priority 2004, dated 2010).

The target of series [1] is T1, enzyme FAAH (Fatty Acid amido Hydrolase) (Mus musculus, UniProt O08914).
T1 construct: The membrane homogenates are prepared at the time of use by homogenization of the tissues with a Polytron; from tissue; host or cells: mouse brain (minus the cerebellum), membrane homogenate
T1 sequence (O08914 1-579): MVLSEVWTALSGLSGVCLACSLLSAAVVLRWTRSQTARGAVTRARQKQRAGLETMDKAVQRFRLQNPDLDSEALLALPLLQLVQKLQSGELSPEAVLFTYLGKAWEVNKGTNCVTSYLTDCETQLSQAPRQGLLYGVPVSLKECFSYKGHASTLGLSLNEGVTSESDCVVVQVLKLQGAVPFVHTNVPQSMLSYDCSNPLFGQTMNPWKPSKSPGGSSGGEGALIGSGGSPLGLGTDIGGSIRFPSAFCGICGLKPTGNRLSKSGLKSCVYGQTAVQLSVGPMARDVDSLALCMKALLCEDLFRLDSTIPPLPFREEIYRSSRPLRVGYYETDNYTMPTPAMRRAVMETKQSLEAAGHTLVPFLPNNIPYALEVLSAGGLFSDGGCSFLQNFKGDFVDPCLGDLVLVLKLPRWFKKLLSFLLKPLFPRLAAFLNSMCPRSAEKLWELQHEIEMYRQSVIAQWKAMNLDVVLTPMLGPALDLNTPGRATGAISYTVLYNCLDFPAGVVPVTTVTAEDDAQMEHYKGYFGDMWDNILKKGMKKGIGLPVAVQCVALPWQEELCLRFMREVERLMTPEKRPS
Briefly: radioenzymatic test of FAAH inhibition (hydrolysis of ((1-3H)ethanolamine)-anandamide by mouse brain membrane homogenates). The format is biochemical. To be noted: 10 μM anandamide, 15 minutes at 25° C., read-out: IC50 (concentration which inhibits the control enzymatic activity of FAAH by 50%). Here is the method:
The compounds of the invention have formed the subject of pharmacological trials which make it possible to determine their inhibitory effect on the enzyme FAAH (Fatty Acid amido Hydrolase).
Thus, mouse brains (minus the cerebellum) are removed and stored at −80° C. The membrane homogenates are prepared at the time of use by homogenization of the tissues with a Polytron in a 10 mM Tris-HCl buffer (pH 8.0) comprising 150 mM NaCl and 1 mM EDTA. The enzymatic reaction is subsequently carried out in 70 μl of buffer comprising bovine serum albumin free from fatty acids (1 mg/ml). The test compounds, at various concentrations, the ((1-^3H)ethanolamine)-anandamide (specific activity of 15-20 Ci/mmol), diluted to 10 μM with non-radiolabelled anandamide, and the membrane preparation (400 μg of frozen tissue per assay) are successively added. After 15 minutes at 25° C., the enzymatic reaction is halted by addition of 140 μl of chloroform/methanol (2:1). The mixture is stirred for 10 minutes and is then centrifuged at 3500 g for 15 minutes. An aliquot (30 μl) of the aqueous phase comprising the (1-^3H)ethanolamine is counted by liquid scintillation.

Series [2] relates to male OF1 mice. In words: test for analgesia: PBQ (phenylbenzoquinone)-induced abdominal tractions. Conditions: 10 mg/kg p.o. The format is in vivo. On the procedure: The in vivo activity of the compounds of the invention was evaluated in a test for analgesia. Thus, the intraperitoneal (i.p.) administration of PBQ (phenylbenzoquinone, 2 mg/kg in a 0.9% sodium chloride solution comprising 5% of ethanol) to male OF1 mice weighing 25 to 30 g causes abdominal tractions, on average 30 twisting or contracting motions during the period from 5 to 15 minutes after injection. The test compounds are administered, orally (p.o.) or intraperitoneally (i.p.) in suspension in 0.5% Tween 80, 60 minutes or 120 minutes before the administration of PBQ. Under these conditions, the most powerful compounds of the invention reduce by 35 to 70% the number of tractions induced by the PBQ, within a range of doses of between 1 and 30 mg/kg.

As for `CNC(=O)COC(=O)NCCCCn1ccc2cccnc21` [Compound 58, 2-(methylamino)-2-oxoethyl 4-(1H-pyrrolo[2,3-b]pyrid-1-yl)butylcarbamate], the melting point was 52 to 54 °C. In turn, `CNC(=O)COC(=O)NCCCCn1ccc2ccccc21` [Compound 56, 2-(methylamino)-2-oxoethyl 4-(1H-indol-1-yl)butylcarbamate] yielded a melting point of 64 to 67 °C.

For the compound `NC(=O)COC(=O)NCCCCc1ccncc1` [Compound 37, 2-amino-2-oxoethyl 4-(pyrid-4-yl)butylcarbamate], the melting point is 124 to 126 °C. Take `CNC(=O)COC(=O)NCCCc1cc(-c2ccc(Cl)cc2)ncn1` [Compound 20, 2-(methylamino)-2-oxoethyl 3-[6-(4-chlorophenyl)pyrimidin-4-yl]propylcarbamate]: the melting point was in the range of 147 to 149 °C.

As for `NC(=O)COC(=O)NCCCCCc1cncc2ccccc12` [Compound 68, 2-amino-2-oxoethyl 5-(isoquinolin-4-yl)pentylcarbamate], the IC50 in series [1] came out at 267 nM. In the case of `CNC(=O)COC(=O)NCCc1ccc(-c2ccccc2)nc1` [Compound 3, 2-(methylamino)-2-oxoethyl 2-(6-phenylpyrid-3-yl)ethylcarbamate], the melting point lay in the range of 130 to 132 °C.

For the compound `CNC(=O)COC(=O)NCCCc1cc(-c2ccc(Cl)cc2)no1` [Compound 29, 2-(methylamino)-2-oxoethyl 3-[3-(4-chlorophenyl)isoxazol-5-yl]propylcarbamate], the melting point was 158 to 160 °C. `CNC(=O)COC(=O)NCCCc1cc(-c2ccc(-c3ccccc3)cc2)no1` [Compound 30, 2-(methylamino)-2-oxoethyl 3-[3-(4-phenylphenyl)isoxazol-5-yl]propylcarbamate] displayed a melting point of 198 to 200 °C. Take `CNC(=O)COC(=O)NCCCCc1cc(-c2ccc(Cl)cc2)no1` [Compound 48, 2-(methylamino)-2-oxoethyl 4-[3-(4-chlorophenyl)isoxazol-5-yl]butylcarbamate]: the “reduction of the number of tractions induced by the PBQ” value in series [2] (administered 60 minutes before PBQ) was found to be 53%; in series [2] (administered 120 minutes before PBQ) it was 62%.

In the case of `NC(=O)COC(=O)NCCCC#Cc1cccc2ccccc12` [Compound 71, 2-amino-2-oxoethyl [5-(naphth-1-yl)pent-4-yn-1-yl]carbamate], the melting point lay in the range of 105 to 108 °C.

A word on the melting point: it is the temperature of the solid-liquid transition.
